The subject of one series is A2780 ovarian. Details: method as in PMID 36296713, PMID 36142383. The following applies: cited from earlier work.
A further series concerns U87 glioblastoma. Details: method as in PMID 36296713, PMID 36142383. The following applies: cited from earlier work.
For a further series, the system named is Du145 prostate. Details: method as in PMID 36296713, PMID 36142383. To be noted: cited from earlier work.
Another series has as its system SJG2 glioblastoma. Also noted: method as in PMID 36296713, PMID 36142383. The following applies: cited from earlier work.
The test system of a further series is H460 lung. Details: method as in PMID 36296713, PMID 36142383. The following applies: cited from earlier work.
The subject of the next series is HT29 colon. Also noted: method as in PMID 36296713, PMID 36142383. The following applies: cited from earlier work.
The test system of series [1] is ADDP ovarian variant (cisplatin-resistant A2780 clone). Also noted: method as in PMID 36296713, PMID 36142383. To be noted: cited from earlier work.
A further series has as its system A431 skin. Details: method as in PMID 36296713, PMID 36142383. To be noted: cited from earlier work.
A further series deals with MCF7 breast. Also noted: method as in PMID 36296713, PMID 36142383. The following applies: cited from earlier work.
The next series deals with BE2C neuroblastoma. Details: method as in PMID 36296713, PMID 36142383. To be noted: cited from earlier work.
A further series has as its system MIA pancreas. Also noted: method as in PMID 36296713, PMID 36142383. The following applies: cited from earlier work.
The subject of the next series is multiple cell lines. Details: method as in PMID 36296713, PMID 36142383. The following applies: mean over all cell lines tested; cited from earlier work.
In series [2] the test system is HT29 colon cells. The experiment in a line: Mitochondrial membrane potential, TMRE-MtMP assay. Type of series: cell-based, human. To be noted: treatment at GI50 concentration (FCCP positive control 20 μM). From the text:
To study the MtMP changes in treated cells, a TMRE-MtMP Assay Kit (Abcam, Cambridge, MA, USA) was used (see Supplementary Materials).
TMRE was used to stain HT29 colon cells, and treatment with the complexes and ligands was completed at each specific GI50 concentration. The MtMP changes detected are expressed as RFU. Additionally, lower RFU values correspond to a decline in mitochondrial activity. […]
dimethylthiazol-2-yl]-2,5-diphenyltetrazolium bromide) assay and absorbance was read at 540 nm. An eight-point dose response curve was produced from which the GI50 value was calculated, representing the drug concentration at which cell growth was inhibited by 50% based on the difference between the optical density values on day 0 and those at the end of drug exposure. […]
5. Mitochondrial Membrane Potential (MtMP)
In 96-well plates, 25,000 cells/mL of HT29 colon cells in DMEM were seeded. Cells were treated with a GI50 drug concentration for each complex. […]
washed with PBS and stained with 1 μM tetramethylrhodamine, ethyl ester (TMRE) and incubated for 30 min. TMRE was then removed, and cells were then re-washed with PBS (0.2% BSA), after which phenol red free media was added. The plates were directly scanned to measure fluorescence (expressed as RFU), using the Glo-Max®-Multimode […]
microplate reader (Promega Corporation, Alexandra, VIC, Australia) at an […]
For the positive control, 20 μM carbonyl cyanide 4-(trifluoromethoxy) phenylhydrazone (FCCP)) was added to the cells and incubated for 10 min. The cells were washed with PBS (0.2% BSA) and stained with TMRE (1 μM) for 30 min; this was removed and phenol red free media was added, and the final solution was scanned as mentioned above. […]

The test system of series [3] is HT29 colon cells. Also noted: method as in PMID 36296713, PMID 36142383. The following applies: cited from earlier work.
The test system of series [4] is non-tumour derived MCF10A breast line. Also noted: method as in PMID 36296713, PMID 36142383. To be noted: cited from earlier work.
Another series deals with MCF10A / Du145. Details: method as in PMID 36296713, PMID 36142383. The following applies: GI50 in MCF10A/GI50 in Du145, from data of previous studies; cited from earlier work.
On the set-up of series [5]: method as in PMID 24951889. The following applies: water, from the literature; cited from earlier work.
Series [6] deals with HT29 colon cells. The experiment in a line: ROS production, DCFDA/H2DCFDA cellular ROS assay. In kind it is cell-based, human. The following applies: treatment at GI50 concentration (TBHP positive control 20 μM). The protocol:
To determine the presence of ROS in treated cells, a DCFDA/H2DCFDA-cellular ROS Assay Kit (Abcam, Cambridge, MA, USA) was utilised, as previously reported. The ROS potential of platinum(II) precursors and platinum(IV) scaffolds, which were determined using the same method, were also presented in this study for comparison.
Additionally, the ROS potential of the platinum(II) precursors and platinum(IV) scaffolds was determined previously and was presented here to allow for comparison (Table 10 and Figure 13). […] Treatment with the complexes and ligands was completed at each specific GI50 concentration. […]
dimethylthiazol-2-yl]-2,5-diphenyltetrazolium bromide) assay and absorbance was read at 540 nm. An eight-point dose response curve was produced from which the GI50 value was calculated, representing the drug concentration at which cell growth was inhibited by 50% based on the difference between the optical density values on day 0 and those at the end of drug exposure.
4. Reactive Oxygen Species (ROS) Potential
A total of 25,000 cells/mL of HT29 cells in DMEM were seeded in 96-well plates. Cells were washed with 1X kit buffer, and then stained with 25 μM 2’,7’-dichlorofluorescein diacetate (DCFH-DA) and incubated for 45 min. DCFH-DA was then removed, and cells were then re-washed with 1X kit buffer, after which phenol red free media was added.
Cells were then treated with a GI50 drug concentration for each complex. The plates were directly scanned to measure fluorescence (relative fluorescence units (RFU)) at different time points using the Glo-Max®-Multimode microplate reader (Promega Corporation, Alexandra, VIC, Australia) at an excitation/emission of 485/535 nm. […]

Read-outs that look alike come from different tables or passages of the source. Marks after values point to notes of the source that are not given here.

Usually GI50 stands for the concentration that inhibits growth by half. As for `O=C1[O][Pt]2([NH][C@@H]3CCCC[C@H]3[NH]2)[O]C1=O` (relative stereo) [Oxaliplatin, trans-L-(1R,2R-diaminocyclohexane) oxalatoplatinum(II)], the 50% growth inhibitory concentration (GI50) is 0.16 ± 0.1 µM in the series on A2780 ovarian; 1.8 ± 0.2 µM in the series on U87 glioblastoma; 2.9 ± 0.4 µM in the series with Du145 prostate; 3 ± 1.2 µM in the series on SJG2 glioblastoma; 1.6 ± 0.1 µM in the series on H460 lung; 0.9 ± 0.2 µM in the series with HT29 colon. The concentration for 50% growth inhibition (GI50) in series [1] is 0.8 ± 0.1 µM; with A431 skin, 4.1 ± 0.5 µM; in the series on MCF7 breast, 0.5 ± 0.1 µM; with BE2C neuroblastoma, 0.9 ± 0.2 µM; in the series with MIA pancreas, 0.9 ± 0.2 µM; with multiple cell lines, 1.46 ± 0.32 µM.
Turning to `Cc1cc2c3c4c1=CC=C[N]4[Pt+2]([OH])([OH])[N]3C=CC=2.N[C@H]1CCCC[C@@H]1N` [5MESS(IV)(OH)2], the GI50 with A2780 ovarian was 0.24 ± 0.009 µM; with U87 glioblastoma it was 0.9 ± 0.058 µM; with Du145 prostate, 0.041 ± 0.005 µM; with SJG2 glioblastoma, 0.64 ± 0.07 µM; in the series on H460 lung, 0.06 ± 0.005 µM; with HT29 colon, 0.06 ± 0.006 µM. Moreover, the concentration for 50% growth inhibition (GI50) in series [1] was 0.13 ± 0.022 µM; in the series with A431 skin, 0.36 ± 0.058 µM; in [4] it was 0.13 ± 0.019 µM; with MCF7 breast it was 1.2 ± 0.39 µM; with BE2C neuroblastoma, 1.4 ± 0.3 µM; with MIA pancreas, 0.16 ± 0.029 µM. In addition, the GI50 in the series on multiple cell lines was 0.443 ± 0.081 µM. The “MtMP Changes” value with HT29 colon cells [2] (HT29, 24 h) is 301 ± 14 RFU; in the series on HT29 colon cells [2] (HT29, 48 h), 214 ± 9 RFU; with HT29 colon cells [2] (HT29, 72 h), 198 ± 4 RFU. Besides, the “ROS Production” value with HT29 colon cells [3] (HT29, 24 h) was 234 ± 1 RFU; in the series with HT29 colon cells [3] (HT29, 48 h), 323 ± 9 RFU; in the series on HT29 colon cells [3] (HT29, 72 h), 335 ± 2 RFU. Moreover, the “Selectivity Cytotoxicity Index (SCI)” value in the series with MCF10A / Du145 is reported as 3.17.
For `Cc1c(C)c2c3c4c1=CC=C[N]4[Pt+2]([OH])([OH])[N]3C=CC=2.N[C@H]1CCCC[C@@H]1N` [56MESS(IV)(OH)2], the GI50 in the series with A2780 ovarian is 0.059 ± 0.007 µM; with U87 glioblastoma, 0.19 ± 0.023 µM; in the series with Du145 prostate, 0.015 ± 0.0026 µM; with SJG2 glioblastoma, 0.21 ± 0.045 µM; with H460 lung, 0.19 ± 0.15 µM; with HT29 colon, 0.036 ± 0.007 µM. Further, the 50% growth inhibitory concentration (GI50) in series [1] is 0.17 ± 0.12 µM; with A431 skin, 0.12 ± 0.022 µM; in series [4] it was 0.061 ± 0.007 µM; in the series on MCF7 breast, 0.48 ± 0.14 µM; in the series on BE2C neuroblastoma it was 0.24 ± 0.022 µM; with MIA pancreas, 0.043 ± 0.0025 µM. The GI50 with multiple cell lines was 0.151 ± 0.05 µM. Besides, the “MtMP Changes” value with HT29 colon cells [2] (HT29, 24 h) came out at 245 ± 16 RFU; in the series on HT29 colon cells [2] (HT29, 48 h), 177 ± 11 RFU; with HT29 colon cells [2] (HT29, 72 h), 125 ± 12 RFU. For the same compound, the “ROS Production” value in the series with HT29 colon cells [3] (HT29, 24 h) was 259 ± 3 RFU; in the series with HT29 colon cells [3] (HT29, 48 h), 356 ± 11 RFU; in the series with HT29 colon cells [3] (HT29, 72 h) it was 438 ± 7 RFU. The “Selectivity Cytotoxicity Index (SCI)” value in the series with MCF10A / Du145 is listed as 4.07.
In the case of `N.N.O=C([O-])C1(C(=O)[O-])CCC1.[Pt+2]` [Carboplatin, cis-diammine(1,1-cyclobutanedicarboxylato) platinum(II)], the GI50 in the series with A2780 ovarian was 9.2 ± 2.9 µM; in the series on U87 glioblastoma, over 50 µM; in the series on Du145 prostate, 15 µM; in the series with SJG2 glioblastoma, 5.7 ± 0.2 µM; in the series on H460 lung it was 14 µM; in the series on HT29 colon, over 50 µM. Also, the GI50 in series [1] is over 50 µM; in the series on A431 skin it was 24 µM; in [4], over 50 µM; in the series with MCF7 breast it was over 50 µM; with BE2C neuroblastoma, 19 µM; in the series with MIA pancreas, over 50 µM. Besides, the GI50 in the series with multiple cell lines is 32.2 µM. Besides, in [5], the Solubility is 11.7 * mg/mL. Moreover, the “Selectivity Cytotoxicity Index (SCI)” value with MCF10A / Du145 was 3.33.
For the compound `N#CC(C#N)=NNc1ccc(OC(F)(F)F)cc1` [FCCP, carbonyl cyanide 4-(trifluoromethoxy) phenylhydrazone], the “MtMP Changes” value with HT29 colon cells [2] (HT29, 24 h) is reported as 194 ± 10 RFU; in the series with HT29 colon cells [2] (HT29, 48 h), 143 ± 5 RFU; in the series with HT29 colon cells [2] (HT29, 72 h) it was 80 ± 5 RFU.
For `N[C@H]1CCCC[C@@H]1N.[OH][Pt+2]1([OH])[N]2C=CC=c3ccc4c(c32)[N]1C=CC=4` [PHENSS(IV)(OH)2], the GI50 in the series with A2780 ovarian was 0.8 ± 0.084 µM; with U87 glioblastoma, 4.9 ± 0.61 µM; in the series on Du145 prostate, 0.31 ± 0.092 µM; in the series on SJG2 glioblastoma, 1.7 ± 0.35 µM; with H460 lung it was 1.7 ± 0.2 µM; in the series on HT29 colon it was 0.71 ± 0.3 µM. Also, the 50% growth inhibitory concentration (GI50) is 1.3 ± 0.35 µM in series [1]; 4.3 ± 0.53 µM in the series with A431 skin; 1.7 ± 0.2 µM in series [4]; 16 µM with MCF7 breast; 3 ± 0.53 µM with BE2C neuroblastoma; 3.4 ± 2.2 µM in the series with MIA pancreas. The GI50 with multiple cell lines was 3.32 ± 0.88 µM. For the same compound, the “MtMP Changes” value in the series with HT29 colon cells [2] (HT29, 24 h) is given as 321 ± 17 RFU; in the series on HT29 colon cells [2] (HT29, 48 h) it was 241 ± 10 RFU; in the series with HT29 colon cells [2] (HT29, 72 h), 216 ± 8 RFU. The “ROS Production” value is on record as 144 ± 5 RFU in the series with HT29 colon cells [3] (HT29, 24 h); 273 ± 4 RFU in the series with HT29 colon cells [3] (HT29, 48 h); 303 ± 1 RFU in the series with HT29 colon cells [3] (HT29, 72 h). In addition, the “Selectivity Cytotoxicity Index (SCI)” value in the series on MCF10A / Du145 was 5.48.
As to `CC(C)(C)OO` [TBHP, tert-butyl hydroperoxide], the “ROS Production” value worked out at 658 ± 28 RFU in the series with HT29 colon cells [6] (HT29, 24 h); 504 ± 15 RFU in the series on HT29 colon cells [6] (HT29, 48 h); 497 ± 10 RFU in the series with HT29 colon cells [6] (HT29, 72 h).

The values above are taken from paper PMC10177380 (Cancers, 2023).
